From ChEMBL document CHEMBL1201862, “PubChem BioAssay data set” (2004) come the findings set out here.

Experiment in all cases: NCI-60 cell line screen, 48 h
Test [1] relates to ACHN.
Test [2] concerns COLO 205.
Test [3] has as its system HOP-62.
The test system of test [4] is K562.
Test [5] concerns KM12.
Test [6] has as its system LOX IMVI.
Test [7] relates to MCF7.
Test [8] concerns MDA-MB-231.
Test [9] relates to MDA-N.
In test [10] the test system is Malme-3M.
In test [11] the test system is OVCAR-5.
Test [12] deals with PC-3.
Test [13] relates to SK-MEL-2.
Test [14] relates to SR.
Test [15] concerns UACC-257.
Test [16] deals with DLD-1.
The test system of test [17] is DMS-114.
Test [18] deals with M19-MEL.
Test [19] has as its system SNB-78.

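Tested at 5 concentrations; 48 h exposure; 96-well plates; endpoints linearly interpolated, else capped at highest concentration. The concentration for 50% growth inhibition is given as GI50.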 Active and inactive are the calls of the source. Rule as the data show it: active = GI50 up to about 1.1 µM and inactive = higher.

As for `CC[C@@H]1/C=C/C=C/C[C@H](C)[C@@H](O)[C@](C)(O)C(=O)[C@H](C)[C@@H](O)[C@H](C)C(=O)[C@H](C)[C@@H](O)[C@H](C)/C=C/C(=O)O[C@H]2[C@@H](C)[C@@H](CC1)O[C@]1(O[C@H](CC(C)O)[C@H](C)CC1=O)[C@@H]2C` (stereo partly drawn), the GI50 in test [1] is 2.65 µM (inactive); in [2] it was < 0.0025 µM (active); in test [3], 3.18 µM (inactive); in test [4] it was < 0.0025 µM (active); in test [5], 3.81 µM (inactive); in test [6] it was 3.99 µM (inactive). Also, the GI50 in test [7] was < 0.0025 µM (active); in test [8] it was 3.72 µM (inactive); in test [9], 3.35 µM (inactive); in test [10] it was 4.93 µM (inactive); in test [11], 3.3 µM (inactive); in [12], < 0.0025 µM (active). The GI50 was 3.89 µM (inactive) in test [13], 4.13 µM (inactive) in test [14] and < 0.0025 µM (active) in [15].
For the compound `COc1cc(OC)c2c(=O)cc(-c3ccc(OC)c(OC)c3OC)oc2c1`, the GI50 was 83.6 µM (inactive) in test [1]; > 100 µM (inactive) in [2]; > 100 µM (inactive) in [16]; > 100 µM (inactive) in [17]; 27.7 µM (inactive) in test [3]; > 100 µM (inactive) in [4]. For the same compound, the GI50 was > 100 µM (inactive) in test [5]; > 100 µM (inactive) in test [6]; > 100 µM (inactive) in test [18]; > 100 µM (inactive) in [10]; > 100 µM (inactive) in [11]; 60.1 µM (inactive) in test [13]. Moreover, the GI50 in test [15] is > 100 µM (inactive).
Turning to `C1C2CC3CC1CC(Nc1nc(NC45CC6CC(CC(C6)C4)C5)nc(NC45CC6CC(CC(C6)C4)C5)n1)(C2)C3`, the GI50 in test [1] is 51.2 µM (inactive); in test [2], 28.7 µM (inactive); in [3] it was > 36.5 µM (inactive); in [4], > 62.5 µM (inactive); in [5], 22.1 µM (inactive); in [6], 11.1 µM (inactive). The GI50 in [7] is 55.1 µM (inactive); in test [8], > 100 µM (inactive); in test [9], 74.3 µM (inactive); in test [10] it was > 100 µM (inactive); in test [11] it was > 92.3 µM (inactive); in test [12], > 67.3 µM (inactive). In addition, the GI50 was > 70 µM (inactive) in test [13], 51.2 µM (inactive) in [14] and > 28.8 µM (inactive) in test [15].
Take `CC(=O)C1C(=O)C(C(C)=O)C2C3C=CC(C3)C12` (stereo not drawn): the GI50 in test [1], in [2], in test [3], in test [4], in test [5] and in [6] was > 100 µM (inactive) in each case. The GI50 in [7], in test [8], in test [9], in test [10], in [11] and in test [12] was > 100 µM (inactive) each time. For the same compound, the GI50 in [13], in [14] and in test [15] was > 100 µM (inactive) in each case.
Regarding `CCOc1cccc(/C=N/N=C2\C(=O)Nc3c(Cl)cc(Cl)cc32)c1O`, the GI50 in [1] is > 100 µM (inactive); in test [2] it was > 100 µM (inactive); in [3] it was 30.4 µM (inactive); in test [4] it was 41.1 µM (inactive); in [5], > 100 µM (inactive); in test [6], 32.5 µM (inactive). The GI50 was 57.5 µM (inactive) in [7]; 37.2 µM (inactive) in [8]; 45.7 µM (inactive) in [9]; > 100 µM (inactive) in [10]; > 100 µM (inactive) in test [11]; 44.2 µM (inactive) in test [12]. The GI50 in test [13] was 83.8 µM (inactive); in test [14], 29.4 µM (inactive); in test [15], > 100 µM (inactive).
`C=C1C(=O)O[C@H]2[C@H](OC(C)=O)[C@@H](C)CCC/C(C)=C/CC[C@@]3(C)O[C@@H]3C[C@@H]12`: the GI50 was 1.72 µM (inactive) in test [1]; 3.19 µM (inactive) in test [2]; 15.6 µM (inactive) in test [3]; 3.03 µM (inactive) in test [4]; 6.44 µM (inactive) in [5]; 1.86 µM (inactive) in test [6]. For the same compound, the GI50 was 2.31 µM (inactive) in [7]; 4.08 µM (inactive) in test [8]; 2.94 µM (inactive) in test [9]; 16 µM (inactive) in test [10]; 8.26 µM (inactive) in [11]; 5.25 µM (inactive) in test [12]. For the same compound, the results for the GI50 in test [13], in test [14] and in test [15] were 6.01 µM (inactive), 1.86 µM (inactive) and 5.06 µM (inactive), respectively.
`O=C(NC1CCCCCC1)C1C(=O)N(C2CCCCCC2)C(=O)/C1=N\O` (stereo not drawn): the GI50 in test [1] is 35.2 µM (inactive); in test [2], 17.3 µM (inactive); in [16] it was 44.1 µM (inactive); in test [17] it was 33 µM (inactive); in test [3], 18.7 µM (inactive); in test [4] it was 39.1 µM (inactive). The GI50 in [5] was 37.1 µM (inactive); in test [6], 35.6 µM (inactive); in test [18], 28.2 µM (inactive); in test [10] it was 24.4 µM (inactive); in test [11] it was 50.8 µM (inactive); in [13], 17.1 µM (inactive). The GI50 in test [19] is 34.3 µM (inactive); in test [14], 23.8 µM (inactive); in test [15], 38.8 µM (inactive).
Consider `COC(=O)C1c2cc3c(cc2C(OC2OC(C)C(OC)C(C)(OC)C2OC)CC1(C)O)C(=O)c1c(O)cc2c(c1C3=O)OC1OC2(C)C(O)C([N+](C)(C)[O-])C1O` (stereo not drawn), for which the GI50 in test [1] was 0.309 µM (active); in test [2], 0.0634 µM (active); in test [3], 0.336 µM (active); in test [4] it was 0.0324 µM (active); in [5], 0.154 µM (active); in test [6], 0.0354 µM (active). Also, the GI50 in test [7] was 0.149 µM (active); in test [8], 0.469 µM (active); in test [9] it was 0.0512 µM (active); in [10], 0.0581 µM (active); in test [11] it was 1.48 µM (inactive); in [12], 0.355 µM (active). Also, the GI50 in [13] was 0.137 µM (active); in test [14], 0.305 µM (active); in test [15], 0.182 µM (active).
With `CC(=O)Oc1c(C)c2c(O)c3c1C1=C(OCOC1=C(C)C3=O)/C(C)=C/C(C)(O)C(O)C(C)C(O)C1C(=O)OC(C(C)C1O)C(C)(O)/C=C\C=C(C)C(=O)N2` (stereo not drawn), the GI50 in [1] is 33.9 µM (inactive); in test [2] it was 86.5 µM (inactive); in test [3], 19.2 µM (inactive); in [4], 21.7 µM (inactive); in [5], 34.8 µM (inactive); in [6] it was 27.4 µM (inactive). Moreover, the GI50 in [7] was 37.1 µM (inactive); in test [8] it was 21.5 µM (inactive); in [9], > 100 µM (inactive); in [10] it was 41.9 µM (inactive); in [11], 4.46 µM (inactive); in test [12], 27.5 µM (inactive). The results for the GI50 in [13], in test [14] and in test [15] were 34.4 µM (inactive), 43.3 µM (inactive) and > 100 µM (inactive), respectively.
For `CC(=O)O[C@H]1C(=O)[C@@]2(C)C(C(OC(=O)c3ccccc3)[C@]3(O)CC(OC(=O)C(O)C(NC(=O)c4cccc(Cl)c4)c4ccccc4)C(C)=C1C3(C)C)[C@]1(OC(C)=O)CO[C@@H]1C[C@@H]2O` (stereo partly drawn), the GI50 in test [1] was 1.82 µM (inactive); in test [2] it was 0.385 µM (active); in test [3], 0.518 µM (active); in [4], 0.562 µM (active); in test [5], 0.507 µM (active); in test [6] it was 0.841 µM (active). In addition, the GI50 was 0.344 µM (active) in test [7]; 1.73 µM (inactive) in test [8]; 0.0914 µM (active) in test [9]; 2.75 µM (inactive) in test [10]; 1.1 µM (active) in [11]; 1.53 µM (inactive) in test [12]. For the same compound, the GI50 was 0.656 µM (active) in test [13], 0.218 µM (active) in test [14] and 2.09 µM (inactive) in [15].
Regarding `O=c1c2sc(=S)n(-c3ccc(F)cc3)c2ncn1/N=C/c1ccc(F)cc1F`, the GI50 is 27.5 µM (inactive) in [1]; > 100 µM (inactive) in [2]; 16.6 µM (inactive) in test [3]; > 100 µM (inactive) in [4]; 79.8 µM (inactive) in test [5]; 43.6 µM (inactive) in [6]. For the same compound, the GI50 in [7] was 41.5 µM (inactive); in test [8], 21.1 µM (inactive); in [9], > 100 µM (inactive); in test [10] it was 18.7 µM (inactive); in [11], 32.2 µM (inactive); in test [12], 31.6 µM (inactive). Further, the values for the GI50 in test [13], in [14] and in [15] were 25.4 µM (inactive), 40.1 µM (inactive) and 34.9 µM (inactive), respectively.
As to `Brc1ccc2[nH]cc(-c3nc(-c4c[nH]c5ccccc45)cs3)c2c1`, the GI50 in test [1] is 2.43 µM (inactive); in [2] it was 1.22 µM (inactive); in test [3], 4.58 µM (inactive); in [4] it was 2.95 µM (inactive); in test [5], 2.09 µM (inactive); in test [6], 1.93 µM (inactive). The GI50 was 2.8 µM (inactive) in test [7]; 2.37 µM (inactive) in test [8]; 2.91 µM (inactive) in [9]; 3.17 µM (inactive) in test [10]; 1.95 µM (inactive) in [11]; 3.11 µM (inactive) in test [12]. In addition, the GI50 in test [13] is 2.82 µM (inactive); in test [14], 3.44 µM (inactive); in test [15], 3.97 µM (inactive).
